Assay results reported in patent publication US20260207654A1, “HEPARAN SULFATE AND ITS MIMETICS AS CHEMOKINE INHIBITORS” (INDIAN INSTITUTE OF SCIENCE EDUCATION AND RESEARCH, priority 2021, published 2026).

Columns and labels:
[1] = molecular target: T1, CCL28 (Homo sapiens, UniProt Q9NRJ3); assay: Chemokine glycan microarray binding assay; settings: maximum RFU set as 100% binding, average across 2 glycan concentrations and 3 chemokine dilutions (n=6)
T1 sequence (Q9NRJ3 20-127): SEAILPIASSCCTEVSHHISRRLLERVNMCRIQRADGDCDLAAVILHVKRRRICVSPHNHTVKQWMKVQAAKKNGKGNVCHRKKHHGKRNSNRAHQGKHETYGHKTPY
Summary of the method: (§1)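 Epoxy-slide glycan array; block: PBS pH 7.3 + 1% ovalbumin, 1 h RT. Chemokine, 3 serial dilutions, 2 h RT; biotin-secondary Ab 1 μg/mL → Cy3-SA; fluorescence scan. Max RFU per block = 100%, others ranked; mean rank ± SEM over dilutions.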

[2] = molecular target: T2, CXCL12 (Homo sapiens, UniProt P48061); assay: Chemokine glycan microarray binding assay; settings: maximum RFU set as 100% binding, average across 2 glycan concentrations and 3 chemokine dilutions (n=6)
T2 sequence (P48061 22-93, species assumed): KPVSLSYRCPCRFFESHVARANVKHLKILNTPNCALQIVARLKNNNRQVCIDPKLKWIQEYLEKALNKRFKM
Summary of the method: as §1

[3] = molecular target: T3, CCL7 (Homo sapiens, UniProt P80098); assay: Chemokine glycan microarray binding assay; settings: maximum RFU set as 100% binding, average across 2 glycan concentrations and 3 chemokine dilutions (n=6)
T3 sequence (P80098 24-99, species assumed): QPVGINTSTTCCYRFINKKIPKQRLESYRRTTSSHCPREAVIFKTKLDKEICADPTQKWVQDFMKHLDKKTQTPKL
Summary of the method: as §1

[4] = molecular target: T4, CXCL10 (Homo sapiens, UniProt P02778); assay: Chemokine glycan microarray binding assay; settings: maximum RFU set as 100% binding, average across 2 glycan concentrations and 3 chemokine dilutions (n=6)
T4 sequence (P02778 22-98): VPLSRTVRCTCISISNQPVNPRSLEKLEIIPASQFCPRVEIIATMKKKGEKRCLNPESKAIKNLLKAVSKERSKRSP
Summary of the method: as §1

[5] = molecular target: T5, CCL21 (Homo sapiens, UniProt O00585); assay: Chemokine glycan microarray binding assay; settings: maximum RFU set as 100% binding, average across 2 glycan concentrations and 3 chemokine dilutions (n=6)
T5 sequence (O00585 24-134): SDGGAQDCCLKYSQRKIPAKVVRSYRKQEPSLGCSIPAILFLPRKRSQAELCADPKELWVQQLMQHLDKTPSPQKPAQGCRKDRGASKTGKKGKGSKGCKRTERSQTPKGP
Summary of the method: as §1

[6] = molecular target: T6, CCL5 (Homo sapiens, UniProt P13501); assay: Chemokine glycan microarray binding assay; settings: maximum RFU set as 100% binding, average across 2 glycan concentrations and 3 chemokine dilutions (n=6)
T6 sequence (P13501 24-91): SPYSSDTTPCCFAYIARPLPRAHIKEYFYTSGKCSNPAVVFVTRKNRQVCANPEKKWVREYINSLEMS
Summary of the method: as §1

[7] = molecular target: T7, CXCL8 (Homo sapiens, UniProt P10145); assay: Chemokine glycan microarray binding assay; settings: maximum RFU set as 100% binding, average across 2 glycan concentrations and 3 chemokine dilutions (n=6)
T7 sequence (P10145 21-99): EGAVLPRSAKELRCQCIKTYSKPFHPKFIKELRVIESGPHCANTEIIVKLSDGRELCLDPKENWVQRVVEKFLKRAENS
Summary of the method: as §1

[8] = molecular target: T8, CCL2 (Homo sapiens, UniProt P13500); assay: Chemokine glycan microarray binding assay; settings: maximum RFU set as 100% binding, average across 2 glycan concentrations and 3 chemokine dilutions (n=6)
T8 sequence (P13500 24-99, species assumed): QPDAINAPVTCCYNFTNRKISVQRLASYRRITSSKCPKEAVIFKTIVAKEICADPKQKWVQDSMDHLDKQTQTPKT
Summary of the method: as §1

[9] = molecular target: CCL13 (Homo sapiens, UniProt Q99616); assay: Chemokine glycan microarray binding assay; settings: maximum RFU set as 100% binding, average across 2 glycan concentrations and 3 chemokine dilutions (n=6)
Sequence of CCL13 (Q99616 17-98, species assumed): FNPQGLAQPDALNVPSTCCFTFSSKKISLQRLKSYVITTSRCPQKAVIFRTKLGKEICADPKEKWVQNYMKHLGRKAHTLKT
Summary of the method: as §1

[10] = molecular target: T2, CXCL12; assay: Surface Plasmon Resonance (SPR) binding kinetics; settings: compound immobilized on CM5 chip, 25° C., 1:1 model
Description: (§2) FIG. 1: SPR analysis of chemokines binding profile for the compounds of present invention: SPR binding analysis of the interaction between the examples 12, 17, and 19, chemokines were reported, Concentrations of chemokines were 0.05-2 μM. A global fit according to a 1:1 binding model was applied (black curves).
(§3) Surface Plasmon Resonance (SPR) binding kinetics The compound of present invention (test compound, Example 12) was covalently immobilized on sensor chip via coupling reaction. At first, the dextran matrix on CM5 chip was activated with NHS (0.02 M) and EDC coupling reagent (0.2 M) at a flow rate of 5 μL min^−1 for 15 min before activating with 50 μL of test compound (0.5 mM) in HBS-EP buffer. In the negative control cell after EDC and NHS activation, 0.5 mM of ethanol amine solution was flowed. The positive RU response on test compound confirmed immobilization of the HS ligand on CM5 chips. Then, different chemokines at a flow rate of 50 μL/min and 25° C. in HBS-EP buffer without growth factor was then flowed over the sensor surface for 3 min to enable association/dissociation. Kinetic analysis was performed using the BIA evaluation software for T100. Association and dissociation phase data were globally fitted to a simple 1:1 interaction model.
(§4) Table 2: SPR analysis of kinetic rate constants and equilibrium affinities of compounds of present invention binding to chemokines
as §3, with “The” for “Surface Plasmon Resonance (SPR) binding kinetics The”, “12, 17 & 18)” for “12)”

[11] = molecular target: T4, CXCL10; assay: Surface Plasmon Resonance (SPR) binding kinetics; settings: compound immobilized on CM5 chip, 25° C., 1:1 model
Description: as §2, §3, §4
as §3, with “The” for “Surface Plasmon Resonance (SPR) binding kinetics The”, “12, 17 & 18)” for “12)”

[12] = molecular target: T6, CCL5; assay: Surface Plasmon Resonance (SPR) binding kinetics; settings: compound immobilized on CM5 chip, 25° C., 1:1 model
Description: as §2, §3, §4
as §3, with “The” for “Surface Plasmon Resonance (SPR) binding kinetics The”, “12, 17 & 18)” for “12)”

[13] = molecular target: T7, CXCL8; assay: Surface Plasmon Resonance (SPR) binding kinetics; settings: compound immobilized on CM5 chip, 25° C., 1:1 model
Description: as §2, §3, §4
as §3, with “The” for “Surface Plasmon Resonance (SPR) binding kinetics The”, “12, 17 & 18)” for “12)”

[14] = molecular target: T8, CCL2; assay: Surface Plasmon Resonance (SPR) binding kinetics; settings: compound immobilized on CM5 chip, 25° C., 1:1 model
Description: as §2, §3, §4
as §3, with “The” for “Surface Plasmon Resonance (SPR) binding kinetics The”, “12, 17 & 18)” for “12)”

[15] = molecular target: T3, CCL7; assay: Surface Plasmon Resonance (SPR) binding kinetics; settings: compound immobilized on CM5 chip, 25° C., 1:1 model
Description: as §2, §3, §4
as §3, with “The” for “Surface Plasmon Resonance (SPR) binding kinetics The”, “12, 17 & 18)” for “12)”

Row | SMILES | mean rank binding to CCL28 [1] | mean rank binding to CXCL12 [2] | mean rank binding to CCL7 [3] | mean rank binding to CXCL10 [4] | mean rank binding to CCL21 [5] | mean rank binding to CCL5 [6] | mean rank binding to CXCL8 [7] | mean rank binding to CCL2 [8] | mean rank binding to CCL13 [9] | Kd [11] | Koff [11] | Kon [11] | Kd [12] | Koff [12] | Kon [12] | Kd [13] | Koff [13] | Kon [13] | Koff [14] | Kon [14] | other results
1 | NCCOCCO[C@@H]1O[C@@H](C(=O)O)[C@@H](O[C@@H]2O[C@@H](C(=O)O)[C@@H](O[C@@H]3O[C@@H](C(=O)O)[C@@H](O[C@@H]4O[C@@H](C(=O)O)[C@@H](OS(=O)(=O)O)[C@H](O)[C@H]4OS(=O)(=O)O)[C@H](O)[C@H]3OS(=O)(=O)O)[C@H](O)[C@H]2OS(=O)(=O)O)[C@H](O)[C@H]1OS(=O)(=O)O [Example 12, Ethoxy-2-aminoethoxyl-O-((2-4-O-disulfonato)-α-L-idopyranosyl Uronic Acid-α(1->4)(2-O-sulfonato)-α-L-idopyranosyl Uronic Acid-α(1→4)(2-O-sulfonato)-α-L-idopyranosyl Uronic Acid-α(1→4)(2-O-sulfonato))-α-L-idopyranoside Uronic Acid] | 72% | 91% | 80% | 87% | 50% | 91% | 96% | 88% | 70% | 15.3 ± 0.21 µM | 2.2 ± 0.38 × 10^−1 S^−1 | 1.44 ± 0.46 × 10^4 M^−1S^−1 | 5.72 ± 0.24 µM | 2.4 ± 0.38 × 10^−1 S^−1 | 4.2 ± 0.46 × 10^4 M^−1S^−1 | 9.34 ± 0.21 µM | 2.96 ± 0.1 × 10^−1 S^−1 | 3.16 ± 0.08 × 10^5 M^−1S^−1 | 2.1 ± 0.5 × 10^−1 S^−1 | 1.26 ± 0.08 × 10^5 M^−1S^−1 | Kd [10]: 18.8 ± 0.44 µM; Koff [10]: 2.1 ± 0.78 × 10^−1 S^−1; Kon [10]: 1.1 ± 0.46 × 10^4 M^−1S^−1; Kd [14]: 1.67 ± 0.3 µM
2 | NCCCO[C@@H]1O[C@@H](C(=O)O)[C@@H](O[C@H]2O[C@H](COS(=O)(=O)O)[C@@H](O[C@@H]3O[C@@H](C(=O)O)[C@@H](O[C@H]4O[C@H](COS(=O)(=O)O)[C@@H](O)[C@H](OS(=O)(=O)O)[C@H]4N)[C@H](O)[C@H]3O)[C@H](OS(=O)(=O)O)[C@H]2N)[C@H](O)[C@H]1O [Example 17, 3-Aminopropyl-O-[(2-amino-6-O-sulfonato-3-O-sulfonato-2-deoxy-α-D-glucopyranosyl)-(1→4)-O-(α-L-idopyranosyluronate)-(1→4)-O-(2-amino-6-O-sulfonato-3-O-sulfonato-2-deoxy-α-D-glucopyranosyl)]-(1→4)-O-α-L-idopyranosiduronate] | 54% | 80% | 89% | 96% | 73% | 82% | 94% | 95% | 69% | 11 ± 0.37 µM | 1.69 ± 0.33 × 10^−1 S^−1 | 1.53 ± 0.26 × 10^4 M^−1S^−1 | 6.81 ± 0.33 µM | 2.98 ± 0.31 × 10^−1 S^−1 | 4.37 ± 0.31 × 10^4 M^−1S^−1 | 11.7 ± 0.17 µM | 2.18 ± 0.28 × 10^−1 S^−1 | 1.87 ± 0.22 × 10^4 M^−1S^−1 | 2.11 ± 0.34 × 10^−1 S^−1 | 11.17 ± 0.32 × 10^4 M^−1S^−1 | Kd [15]: 11.3 ± 0.18 µM; Koff [15]: 2.86 ± 0.21 × 10^−1 S^−1; Kon [15]: 2.53 ± 0.15 × 10^4 M^−1S^−1
